Structures are written as SMILES.

One experiment relates to Streptococcus pyogenes. Kind of experiment: Antibacterial activity against Streptococcus pyogenes. The experiment is classed as functional.
Another experiment deals with Aspergillus fumigatus. Kind of experiment: Antifungal activity against Aspergillus fumigatus. The class given is functional.
The test system of the next experiment is Trichophyton rubrum. Kind of experiment: Antifungal activity against Trichophyton rubrum. The experiment is classed as functional.
The test system of experiment [1] is Staphylococcus haemolyticus. Kind of experiment: Antibacterial against Staphylococcus hemolyticus. The class given is functional.
Another experiment deals with Saprolegnia. Kind of experiment: Antifungal activity against Saprolegnia species. The experiment is classed as functional.
Another experiment relates to Cryptococcus neoformans. Kind of experiment: Antifungal activity against Cryptococcus neoformans. The experiment is classed as functional.
A further experiment has as its system Phialophora verrucosa. The experiment is described as follows: Antifungal activity against Phialophora verrucosa. The class given is functional.
In experiment [2] the test system is Erysipelothrix rhusiopathiae. The experiment is described as follows: Antibacterial activity against Erysipelothrix insidiosa. The class given is functional.
Experiment [3] can be described thus: Ratio of animals cured to that of animals infected, tested in vivo for antifungal activity against vaginal candidosis in rat; 0/2. Note: test concentration or dose not given here.
The next experiment relates to Sporothrix schenckii. Kind of experiment: Antifungal activity against Sporothrix schenck ii. The experiment is classed as functional.
Another experiment has as its system Trichophyton benhamiae. Kind of experiment: Antifungal activity against Trichophyton mentagrophytes. The experiment is classed as functional, trychophyton mentagrophytes.
The next experiment concerns Candida albicans. The experiment is described as follows: Antifungal activity against Candida albicans. The experiment is classed as functional.
For the next experiment, the system named is Mucor. The experiment is described as follows: Antifungal activity against Mucor species. The experiment is classed as functional.
Another experiment concerns Microsporum canis. Kind of experiment: Antifungal activity against Microsporum canis. The class given is functional.
For a further experiment, the system named is Candida tropicalis. The experiment is described as follows: Antifungal activity against Candida tropicalis. The class given is functional.
Experiment [4] in a line: Ratio of animals cured to that of animals infected, tested in vivo for antifungal activity against cutaneous candidosis in guinea pig; 0/2. Note: test concentration or dose not given here. The class given is functional.

As to `Clc1ccc(C2COC(Cn3ccnc3)(c3ccccc3Cl)O2)c(Cl)c1` (stereo not given), the Inhibition was less than 1 µg/mL in the experiment on Streptococcus pyogenes; less than 1 µg/mL in the experiment on Aspergillus fumigatus; less than 1 µg/mL in the experiment on Trichophyton rubrum; 10 µg/mL in experiment [1]; 10 µg/mL in the experiment on Saprolegnia; less than 1 µg/mL in the experiment with Cryptococcus neoformans. Moreover, the Inhibition was 100 µg/mL in the experiment on Phialophora verrucosa; 1 µg/mL in [2]; less than 1 µg/mL with Sporothrix schenckii; less than 1 µg/mL with Trichophyton benhamiae; more than 100 µg/mL in the experiment on Candida albicans; more than 100 µg/mL in the experiment on Mucor. In addition, the figures for the Inhibition in the experiment with Microsporum canis and in the experiment with Candida tropicalis were less than 1 µg/mL and more than 100 µg/mL, respectively. Also, in experiment [3], the Ratio was 0.
As to `Clc1ccccc1C1(Cn2ccnc2)OCC(c2ccc(Br)cc2)O1` (stereo not given), the Inhibition in the experiment on Streptococcus pyogenes is 10 µg/mL; in the experiment with Aspergillus fumigatus, less than 1 µg/mL; in the experiment with Trichophyton rubrum, less than 1 µg/mL; in experiment [1], 10 µg/mL; in the experiment with Saprolegnia it was 10 µg/mL; in the experiment on Cryptococcus neoformans, less than 1 µg/mL. Besides, the Inhibition with Phialophora verrucosa is 10 µg/mL; in experiment [2], 10 µg/mL; with Sporothrix schenckii it was 10 µg/mL; in the experiment on Trichophyton benhamiae it was less than 1 µg/mL; in the experiment on Candida albicans it was 100 µg/mL; in the experiment on Mucor, 10 µg/mL. Moreover, the figures for the Inhibition in the experiment with Microsporum canis and with Candida tropicalis were less than 1 µg/mL and 10 µg/mL, respectively.
On to `Clc1ccc(C2COC(Cn3ccnc3)(c3ccc(Br)cc3)O2)c(Cl)c1` (stereo not given), for which the Inhibition is 1 µg/mL in the experiment on Streptococcus pyogenes; more than 100 µg/mL in the experiment with Aspergillus fumigatus; less than 1 µg/mL with Trichophyton rubrum; 100 µg/mL in experiment [1]; more than 100 µg/mL in the experiment with Saprolegnia; more than 100 µg/mL in the experiment on Cryptococcus neoformans. In addition, the Inhibition is more than 100 µg/mL in the experiment on Phialophora verrucosa; 1 µg/mL in experiment [2]; 100 µg/mL in the experiment on Sporothrix schenckii; 10 µg/mL with Trichophyton benhamiae; more than 100 µg/mL with Candida albicans; 100 µg/mL with Mucor. For the same compound, the Inhibition is 10 µg/mL in the experiment with Microsporum canis and more than 100 µg/mL with Candida tropicalis. The Ratio in [4] was 0.
Regarding `COc1ccc(C2(Cn3ccnc3)OCC(c3ccc(Cl)cc3)O2)cc1` (stereo not given), the Inhibition with Streptococcus pyogenes is 10 µg/mL; in the experiment on Aspergillus fumigatus it was less than 1 µg/mL; in the experiment with Trichophyton rubrum, 10 µg/mL; in [1], 100 µg/mL; in the experiment on Saprolegnia, 100 µg/mL; with Cryptococcus neoformans it was more than 100 µg/mL. The Inhibition was 100 µg/mL with Phialophora verrucosa; 10 µg/mL in experiment [2]; 10 µg/mL in the experiment on Sporothrix schenckii; less than 1 µg/mL in the experiment on Trichophyton benhamiae; more than 100 µg/mL in the experiment with Candida albicans; 100 µg/mL in the experiment on Mucor. The Inhibition in the experiment with Microsporum canis was less than 1 µg/mL; in the experiment with Candida tropicalis, more than 100 µg/mL. Moreover, the Ratio in [4] is listed as 0.
With `Clc1ccc(C2(Cn3ccnc3)OCC(c3ccc(Cl)cc3Cl)O2)cc1` (stereo not given), the Inhibition in the experiment on Streptococcus pyogenes was less than 1 µg/mL; with Aspergillus fumigatus, 100 µg/mL; in the experiment on Trichophyton rubrum, less than 1 µg/mL; in experiment [1], 10 µg/mL; in the experiment on Saprolegnia, 100 µg/mL; in the experiment with Cryptococcus neoformans, 10 µg/mL. Also, the Inhibition in the experiment on Phialophora verrucosa was 100 µg/mL; in experiment [2], 1 µg/mL; in the experiment on Sporothrix schenckii, 10 µg/mL; with Trichophyton benhamiae, less than 1 µg/mL; in the experiment on Candida albicans, 100 µg/mL; in the experiment with Mucor, 100 µg/mL. Moreover, the Inhibition is 10 µg/mL with Microsporum canis and more than 100 µg/mL with Candida tropicalis. Further, the Ratio in experiment [3] is given as 0.
For `Clc1ccc(C2(Cn3ccnc3)OCC(c3ccccc3Cl)O2)c(Cl)c1` (stereo not given), the Inhibition in the experiment on Streptococcus pyogenes is less than 1 µg/mL; in the experiment on Aspergillus fumigatus it was 100 µg/mL; with Trichophyton rubrum it was less than 1 µg/mL; in experiment [1] it was 1 µg/mL; in the experiment on Saprolegnia, 100 µg/mL; in the experiment on Cryptococcus neoformans, less than 1 µg/mL. The Inhibition was 100 µg/mL in the experiment with Phialophora verrucosa; less than 1 µg/mL in experiment [2]; 10 µg/mL with Sporothrix schenckii; less than 1 µg/mL in the experiment with Trichophyton benhamiae; 100 µg/mL in the experiment with Candida albicans; 100 µg/mL in the experiment on Mucor. Further, the Inhibition with Microsporum canis was 10 µg/mL; with Candida tropicalis, 100 µg/mL.
For `Clc1ccc(C2(Cn3ccnc3)OCC(c3ccccc3)O2)cc1` (stereo not given), the Inhibition in the experiment with Streptococcus pyogenes is less than 1 µg/mL; in the experiment on Aspergillus fumigatus it was 10 µg/mL; in the experiment on Trichophyton rubrum, less than 1 µg/mL; in experiment [1] it was 10 µg/mL; in the experiment with Saprolegnia, 100 µg/mL; in the experiment on Cryptococcus neoformans it was 10 µg/mL. The Inhibition with Phialophora verrucosa was 100 µg/mL; in experiment [2] it was 1 µg/mL; with Sporothrix schenckii, 10 µg/mL; in the experiment on Trichophyton benhamiae, less than 1 µg/mL; in the experiment on Candida albicans it was 100 µg/mL; in the experiment with Mucor, 100 µg/mL. In addition, the Inhibition is 10 µg/mL in the experiment with Microsporum canis and more than 100 µg/mL in the experiment on Candida tropicalis.
Take `Clc1ccc(C2COC(Cn3ccnc3)(c3ccccc3Cl)O2)cc1` (stereo not given): the Inhibition in the experiment with Streptococcus pyogenes was less than 1 µg/mL; in the experiment on Aspergillus fumigatus, less than 1 µg/mL; in the experiment with Trichophyton rubrum it was less than 1 µg/mL; in experiment [1], 100 µg/mL; in the experiment with Saprolegnia, 10 µg/mL; with Cryptococcus neoformans, 100 µg/mL. In addition, the Inhibition in the experiment on Phialophora verrucosa is 100 µg/mL; in [2] it was less than 1 µg/mL; in the experiment with Sporothrix schenckii it was 10 µg/mL; with Trichophyton benhamiae, less than 1 µg/mL; in the experiment on Candida albicans, 100 µg/mL; in the experiment on Mucor, 100 µg/mL. Further, the Inhibition in the experiment with Microsporum canis was less than 1 µg/mL; in the experiment on Candida tropicalis it was 100 µg/mL.
Consider `Cc1ccc(C2(Cn3ccnc3)OCC(c3ccc(Cl)cc3Cl)O2)cc1` (stereo not given), for which the Inhibition is less than 1 µg/mL with Streptococcus pyogenes; 100 µg/mL in the experiment on Aspergillus fumigatus; less than 1 µg/mL in the experiment on Trichophyton rubrum; 1 µg/mL in experiment [1]; 100 µg/mL with Saprolegnia; 10 µg/mL with Cryptococcus neoformans. The Inhibition is 100 µg/mL in the experiment with Phialophora verrucosa; less than 1 µg/mL in experiment [2]; 10 µg/mL in the experiment with Sporothrix schenckii; less than 1 µg/mL in the experiment on Trichophyton benhamiae; more than 100 µg/mL in the experiment with Candida albicans; 100 µg/mL with Mucor. The Inhibition is 10 µg/mL in the experiment on Microsporum canis and more than 100 µg/mL in the experiment on Candida tropicalis. In addition, the Ratio in experiment [4] is on record as 0.
On to `Cc1ccc(C2(Cn3ccnc3)OCC(c3ccc(Cl)cc3)O2)cc1` (stereo not given), for which the Inhibition in the experiment with Streptococcus pyogenes was less than 1 µg/mL; with Aspergillus fumigatus, less than 1 µg/mL; in the experiment on Trichophyton rubrum, less than 1 µg/mL; in experiment [1] it was 10 µg/mL; in the experiment with Saprolegnia, 100 µg/mL; with Cryptococcus neoformans, less than 1 µg/mL. In addition, the Inhibition with Phialophora verrucosa is 100 µg/mL; in [2] it was less than 1 µg/mL; with Sporothrix schenckii, 10 µg/mL; in the experiment with Trichophyton benhamiae, less than 1 µg/mL; in the experiment with Candida albicans, more than 100 µg/mL; in the experiment on Mucor it was 10 µg/mL. Moreover, the figures for the Inhibition with Microsporum canis and in the experiment with Candida tropicalis were less than 1 µg/mL and 100 µg/mL, respectively. For the same compound, in experiment [4], the Ratio amounted to 0.
`Clc1ccc(C2(Cn3ccnc3)OCC(Cc3ccc(Br)cc3)O2)c(Cl)c1` (stereo not given): the Inhibition was less than 1 µg/mL in the experiment with Streptococcus pyogenes; 10 µg/mL in the experiment with Aspergillus fumigatus; less than 1 µg/mL with Trichophyton rubrum; 10 µg/mL in [1]; 100 µg/mL in the experiment on Saprolegnia; less than 1 µg/mL in the experiment on Cryptococcus neoformans. Further, the Inhibition in the experiment on Phialophora verrucosa is 100 µg/mL; in [2], less than 1 µg/mL; in the experiment on Sporothrix schenckii it was 10 µg/mL; in the experiment with Trichophyton benhamiae, less than 1 µg/mL; with Candida albicans, 10 µg/mL; in the experiment on Mucor it was less than 1 µg/mL. For the same compound, the Inhibition in the experiment with Microsporum canis was less than 1 µg/mL; with Candida tropicalis, more than 100 µg/mL. For the same compound, the Ratio in experiment [3] stood at 0.
Consider `Brc1ccc(C2COC(Cn3ccnc3)(c3ccccc3)O2)cc1` (stereo not given), for which the Inhibition was less than 1 µg/mL in the experiment on Streptococcus pyogenes; 10 µg/mL in the experiment with Aspergillus fumigatus; less than 1 µg/mL in the experiment with Trichophyton rubrum; more than 100 µg/mL in experiment [1]; 100 µg/mL in the experiment on Saprolegnia; 10 µg/mL in the experiment on Cryptococcus neoformans. The Inhibition with Phialophora verrucosa was 100 µg/mL; in experiment [2], 1 µg/mL; in the experiment with Sporothrix schenckii, 10 µg/mL; in the experiment with Trichophyton benhamiae, less than 1 µg/mL; in the experiment with Candida albicans, 100 µg/mL; in the experiment with Mucor it was 100 µg/mL. Moreover, the Inhibition in the experiment on Microsporum canis is less than 1 µg/mL; in the experiment on Candida tropicalis, more than 100 µg/mL.

The values above are taken from ChEMBL document CHEMBL1121748, “Antimycotic imidazoles. 5. Synthesis and antimycotic properties of 1-[[2-aryl-4-(arylalkyl)-1,3-dioxolan-2-yl]methyl]-1H-imidazoles” (1981).
